Experimental data: ChEMBL document CHEMBL3393049, “Syntheses and Antituberculosis Activity of 1,3-Benzothiazinone Sulfoxide and Sulfone Derived from BTZ043” (ACS Med Chem Lett, 2015)
In brackets after ≈: the same amount, converted by molar mass.

These molecules were tested on Mycobacterium tuberculosis variant bovis BCG (assay: Antimycobacterial activity against Mycobacterium bovis BCG ATCC 35734 assessed as reduction in bacterial growth incubated for 6 days by MABA method). Conditions: ATCC 35734, 144 h.
Assay type: functional

How did the MIC turn out when `C[C@H]1COC2(CCN(c3nc(=O)c4cc(C(F)(F)F)cc([N+](=O)[O-])c4[s+]3[O-])CC2)O1` (stereo not given in full) was run?
Its MIC is 0.21 µM (≈ 0.094 µg/mL).

For `C[C@H]1COC2(CCN(C3=NC(=O)c4cc(C(F)(F)F)cc([N+](=O)[O-])c4S3(=O)=O)CC2)O1`, which MIC is on record?
The MIC was > 1 µM.

For `C[C@H]1COC2(CCN(c3nc(=O)c4cc(C(F)(F)F)cc([N+](=O)[O-])c4s3)CC2)O1` [BTZ-043], which MIC is on record?
The MIC was < 0.02 µM.

For `NNC(=O)c1ccncc1` [ISONIAZID], which MIC is on record?
The MIC was 0.5 µM (≈ 0.0686 µg/mL).

With `CO[C@H]1/C=C/O[C@@]2(C)Oc3c(C)c(O)c4c(O)c(c(/C=N/N5CCN(C)CC5)c(O)c4c3C2=O)NC(=O)/C(C)=C\C=C\[C@H](C)[C@H](O)[C@@H](C)[C@@H](O)[C@@H](C)[C@H](OC(C)=O)[C@@H]1C` [RIFAMPIN] as the molecule, how does the MIC read?
Its MIC is 0.02 µM (≈ 0.0165 µg/mL).
